Assay: xn = mol fraction of the nth substance listed
Conditions: 100 kPa, Liquid; for mass density: Vibrating tube method; for viscosity: Falling or rolling sphere viscometry

OCC1CC1 [cyclopropylmethanol] + CCCCCCCCCCCC
Conditions | mass density [kg/m3] | viscosity [mPa·s]
318.15 K, x1 = 0.1135 | 736.06 | –
318.15 K, x1 = 0.2127 | 742.4 | –
318.15 K, x1 = 0.3059 | 749.51 | –
318.15 K, x1 = 0.3804 | 756.13 | –
318.15 K, x1 = 0.5067 | 769.82 | –
318.15 K, x1 = 0.6019 | 782.78 | –
318.15 K, x1 = 0.7011 | 799.61 | –
318.15 K, x1 = 0.7921 | 819.33 | –
318.15 K, x1 = 0.8991 | 850.32 | –
318.15 K, x1 = 1 | 892.38 | –
323.15 K, x1 = 0.1039 | – | 0.909
323.15 K, x1 = 0.1135 | 732.26 | –
323.15 K, x1 = 0.2032 | – | 0.927
323.15 K, x1 = 0.2127 | 738.54 | –
323.15 K, x1 = 0.3022 | – | 0.952
323.15 K, x1 = 0.3059 | 745.6 | –
323.15 K, x1 = 0.3804 | 752.18 | –
323.15 K, x1 = 0.3997 | – | 0.979
323.15 K, x1 = 0.4993 | – | 1.052
323.15 K, x1 = 0.5067 | 765.79 | –
323.15 K, x1 = 0.5994 | – | 1.125
323.15 K, x1 = 0.6019 | 778.71 | –
323.15 K, x1 = 0.7 | – | 1.22
323.15 K, x1 = 0.7011 | 795.48 | –
323.15 K, x1 = 0.7921 | 815.17 | –
323.15 K, x1 = 0.797 | – | 1.346
323.15 K, x1 = 0.8991 | 846.12 | –
323.15 K, x1 = 0.9004 | – | 1.546
323.15 K, x1 = 1 | 888.13 | 1.843
328.15 K, x1 = 0.1039 | – | 0.849
328.15 K, x1 = 0.1135 | 728.45 | –
328.15 K, x1 = 0.2032 | – | 0.864
328.15 K, x1 = 0.2127 | 734.66 | –
328.15 K, x1 = 0.3022 | – | 0.884
328.15 K, x1 = 0.3059 | 741.65 | –
328.15 K, x1 = 0.3804 | 748.19 | –
328.15 K, x1 = 0.3997 | – | 0.907
328.15 K, x1 = 0.4993 | – | 0.969
328.15 K, x1 = 0.5067 | 761.73 | –
328.15 K, x1 = 0.5994 | – | 1.031
328.15 K, x1 = 0.6019 | 774.6 | –
328.15 K, x1 = 0.7 | – | 1.112
328.15 K, x1 = 0.7011 | 791.32 | –
328.15 K, x1 = 0.7921 | 810.96 | –
328.15 K, x1 = 0.797 | – | 1.221
328.15 K, x1 = 0.8991 | 841.86 | –
328.15 K, x1 = 0.9004 | – | 1.391
328.15 K, x1 = 1 | 883.84 | 1.646
333.15 K, x1 = 0.1039 | – | 0.794
333.15 K, x1 = 0.1135 | 724.62 | –
333.15 K, x1 = 0.2032 | – | 0.806
333.15 K, x1 = 0.2127 | 730.75 | –
333.15 K, x1 = 0.3022 | – | 0.823
333.15 K, x1 = 0.3059 | 737.68 | –
333.15 K, x1 = 0.3804 | 744.17 | –
333.15 K, x1 = 0.3997 | – | 0.843
333.15 K, x1 = 0.4993 | – | 0.896
333.15 K, x1 = 0.5067 | 757.64 | –
333.15 K, x1 = 0.5994 | – | 0.948
333.15 K, x1 = 0.6019 | 770.44 | –
333.15 K, x1 = 0.7 | – | 1.018
333.15 K, x1 = 0.7011 | 787.11 | –
333.15 K, x1 = 0.7921 | 806.7 | –
333.15 K, x1 = 0.797 | – | 1.111
333.15 K, x1 = 0.8991 | 837.56 | –
333.15 K, x1 = 0.9004 | – | 1.257
333.15 K, x1 = 1 | 879.49 | 1.476
338.15 K, x1 = 0.1039 | – | 0.745
338.15 K, x1 = 0.1135 | 720.77 | –
338.15 K, x1 = 0.2032 | – | 0.755
338.15 K, x1 = 0.2127 | 726.81 | –
338.15 K, x1 = 0.3022 | – | 0.769
338.15 K, x1 = 0.3059 | 733.68 | –
338.15 K, x1 = 0.3804 | 740.12 | –
338.15 K, x1 = 0.3997 | – | 0.785
338.15 K, x1 = 0.4993 | – | 0.831
338.15 K, x1 = 0.5067 | 753.5 | –
338.15 K, x1 = 0.5994 | – | 0.875
338.15 K, x1 = 0.6019 | 766.25 | –
338.15 K, x1 = 0.7 | – | 0.935
338.15 K, x1 = 0.7011 | 782.85 | –
338.15 K, x1 = 0.7921 | 802.39 | –
338.15 K, x1 = 0.797 | – | 1.015
338.15 K, x1 = 0.8991 | 833.19 | –
338.15 K, x1 = 0.9004 | – | 1.141
338.15 K, x1 = 1 | 875.07 | 1.328
343.15 K, x1 = 0.1039 | – | 0.702
343.15 K, x1 = 0.1135 | 716.91 | –
343.15 K, x1 = 0.2032 | – | 0.709
343.15 K, x1 = 0.2127 | 722.85 | –
343.15 K, x1 = 0.3022 | – | 0.721
343.15 K, x1 = 0.3059 | 729.64 | –
343.15 K, x1 = 0.3804 | 736.03 | –
343.15 K, x1 = 0.3997 | – | 0.734
343.15 K, x1 = 0.4993 | – | 0.773
343.15 K, x1 = 0.5067 | 749.32 | –
343.15 K, x1 = 0.5994 | – | 0.811
343.15 K, x1 = 0.6019 | 762 | –
343.15 K, x1 = 0.7 | – | 0.862
343.15 K, x1 = 0.7011 | 778.54 | –
343.15 K, x1 = 0.7921 | 798.03 | –
343.15 K, x1 = 0.797 | – | 0.931
343.15 K, x1 = 0.8991 | 828.77 | –
343.15 K, x1 = 0.9004 | – | 1.039
343.15 K, x1 = 1 | 870.62 | 1.201

— the NIST ThermoML archive (doi:10.1021/acs.jced.7b00201)
